What was measured:
MES-induced seizure [1] = assay: Maximal Electroshock Seizure (MES) test in mice, intraperitoneal administration; type: in vivo
Text: (§1) The Maximal Electroshock Seizure (MES) or Maximal Seizure Pattern Test
(§2) The MES is an experimental model for generalized tonic-clonic seizures that identifies compounds that prevent seizure spread. The MES model is highly reproducible and has a consistent endpoint. An advantage of this model is that the behavioral and electrographic seizures are consistent with those observed in humans.
(§3) In the MES test, the animal receives an electrical stimulus, 0.2 seconds in duration, via corneal electrodes primed with an electrolyte solution containing an anesthetic agent. The 0.2 second stimulation is generated with 150 mA in rats and 50 mA in mice at 60 Hz. […] In rats, the compound is administered orally, while mice receive the agent via intraperitoneal injection. The test endpoint, electrogenic seizure, is manifested as hindlimb tonic extension.

MES-induced seizure [2] = assay: Maximal Electroshock Seizure (MES) test in rats, oral administration; type: in vivo; conditions: for Percentage of rats in which the test compound prevented MES-induced seizure: 30 mg/kg oral
Text: as §1, §2, §3
A full dose-response curve was also generated in rats to determine the ED50 value (n=8 at each time point). […] The ED50 of 4,4′-thiodianiline was evaluated in both rats and mice.

6 Hz seizures = assay: 6 Hz kindling model; type: in vivo, mice
Experimental: The 6 Hz kindling model is another experimental seizure model that effectively detects compounds with anti-seizure activity. This screen is used to evaluate the ability of a compound to prevent the acquisition of focal seizures; in particular, the capacity of a compound to prevent the development of seizures induced by a low-frequency (6 Hz), long duration (three seconds) stimulus in electrode […] is evaluated. Several of the most promising compounds were evaluated in this screen to further characterize their anti-seizure activity.
In the 6 Hz kindling test, mice are implanted with corneal electrodes. The test compound is administered (i.p.) to the animal at 0.25, 0.5, 1, 2, or 4 hours prior seizure induction. The seizure is initiated by delivering a current (32 mA at 6 Hz for three seconds) to the animal through the corneal electrodes. The resulting psychomotor seizure is usually characterized by a minimal clonic phase followed by stereotyped, automatistic behaviors. This response is analogous to the aura of human patients with partial seizures.

[3] = test system: focal seizures in hippocampal kindled rats; assay: Hippocampal kindling model; type: in vivo, Sprague-Dawley rats; design: key to Racine Seizure Score ± SEM: Racine stage 1 to 5; conditions: for Afterdischarge Duration ± SEM / Racine Seizure Score ± SEM: rats, 100 mg/kg, n=7
Text: Hippocampal Kindling Model
The hippocampal kindling model is an experimental seizure model used to simulate focal seizures. This model evaluates the capacity of a compound to affect both the expression and acquisition of focal seizures. In addition, kindled seizures provide a methodology for studying complex brain networks that may contribute to the spread and generalizations of seizures from a focus. The hippocampal kindling model has the advantage of being one of the only kindling models that can evaluate the temporal effects of an agent in a single animal. For this assessment, bipolar electrodes are surgically implanted in the ventral hippocampus of adult male Sprague-Dawley rats (275-300 g) under ketamine-xylazine anesthesia. Following a one-week recovery period, stage five behavioral seizures are induced by stimulating the rat 12 times per day with 50 Hz, 10 s train of 1 ms biphasic 200 μA pulses delivered every 30 min for six hours on alternating days. After five stimulus days, the animal has had 60 stimulations. A drug free control period with supramaximal stimulations is used to verify the stability of a stage five generalized seizure before the anticonvulsant activity of a drug is measured.
This screen is used to measure the capacity of the drug to prevent the expression of focal seizures. […] The animal is exposed to an initial stimulation of 20 μA; the stimulation is increased in 10 μA increments every one-two minutes until an afterdischarge is recorded. After the stability of the stage five seizure is established, the drug candidate is administered to the rats via intraperitoneal injection 15 minutes after the last control stimulation. Starting with the first dose, the anticonvulsant activity of the test agent is measured every thirty minutes for four hours. Following each stimulation, Racine seizure scores and afterdischarge durations are compared to control values to quantify the anti-convulsant activity of the agent. The Racine seizure scores vary from stage 1 to 5. The stages are characterized according to the following criteria: Stage 1—mouth and facial clonus, Stage 2—stage 1 and head nodding, Stage 3—stage 2 and forelimb clonus, Stage 4—stage 3 and rearing, Stage 5—stage 4 and repeated rearing and falling. Since a single animal is used, each rat serves as its own control.
4,4′-Thiodianiline was used in the rat hippocampal kindled rats to screen to measure its anticonvulsant potential. Doses of 12.5, 25, 50 and 100 mg/kg were evaluated at a minimum of seven time points (n=7 for each dose and each time point). […] After oral administration of the test compound stimulation, the Racine seizure scores and afterdischarge durations were measured and are shown below. The Racine seizure scores dropped from between a stage 4 and stage 5 seizure for control measurements to between a stage 1 and stage 2 seizure after treatment with 4,4′-thiodianiline.

rats = assay: Minimal neurotoxicity in rats, positional sense and gait and stance tests; type: in vivo; conditions: 1 hour (time to peak effect) after oral administration
Text: If the rat experiences neurological toxicity, it will not be able to quickly lift its leg quickly back to a normal position.
In the gait and stance test, neurotoxicity is indicated by a circular or zigzag gait after administration of the test compound. In addition, ataxia, abnormal spread of the legs, abnormal posture, tremor hyperactivity, lack of exploratory behavior, somnolence, stupor, or catalepsy can indicate neurotoxicity.

mice = assay: Minimal neurotoxicity in mice, rotorod test; conditions: up to four hours after dosing, doses as high as 300 mg/kg
Experimental: In mice, the test compound is administered at doses of 30, and 100 mg/kg prior to evaluation in the toxicity screens. The mice are tested at 0.5 hours and 4 hours after intraperitoneal administration of the test compound.
Toxicity in mice weighing between 18 and 25.5 g is assessed using the standardized rotorod test [9]. For each compound tested, a minimum of 18 animals are evaluated for neurotoxicity. Control mice can maintain their equilibrium for an extended period of time when they are placed on a 6-rpm rotation rod. Neurologically impaired animals cannot maintain equilibrium for one minute in each of three successive trials.

[4] = 30 mg/kg i.p., 0.5 h after administration
[5] = 100 mg/kg i.p., 0.5 h after administration
[6] = 100 mg/kg i.p., 4.0 h after administration

Compound: Nc1ccc(Sc2ccc(N)cc2)cc1 [4,4′-thiodianiline]
- Percentage of mice in which the test compound prevented MES-induced seizure (MES-induced seizure [1]; [4]): 0%
- Percentage of mice in which the test compound prevented MES-induced seizure (MES-induced seizure [1]; 30 mg/kg i.p., 4.0 h after administration): 0%
- Percentage of mice in which the test compound prevented MES-induced seizure (MES-induced seizure [1]; [5]): 66%
- Percentage of mice in which the test compound prevented MES-induced seizure (MES-induced seizure [1]; [6]): 100%
- Percentage of mice in which the test compound prevented MES-induced seizure (MES-induced seizure [1]; 300 mg/kg i.p., 0.5 h after administration): 100%
- Percentage of mice in which the test compound prevented MES-induced seizure (MES-induced seizure [1]; 300 mg/kg i.p., 4.0 h after administration): 100%
- ED50 (MES-induced seizure [1]; Mus musculus, ip, 0.5 h, read-out: ED50 (MES)): 53.4 ± 14.9 mg/kg
- Percentage of rats in which the test compound prevented MES-induced seizure (MES-induced seizure [2]; 0.25 h after administration): 100%
- Percentage of rats in which the test compound prevented MES-induced seizure (MES-induced seizure [2]; 0.5 h after administration): 100%
- Percentage of rats in which the test compound prevented MES-induced seizure (MES-induced seizure [2]; 1.0 h after administration): 100%
- Percentage of rats in which the test compound prevented MES-induced seizure (MES-induced seizure [2]; 2.0 h after administration): 100%
- Percentage of rats in which the test compound prevented MES-induced seizure (MES-induced seizure [2]; 4.0 h after administration): 100%
- ED50 (MES-induced seizure [2]; Rattus norvegicus, po, read-out: ED50 required to inhibit MES-induced seizure): 6.6 ± 5.07 mg/kg
- Time to Peak Effect (MES-induced seizure [2]; rat, oral administration, MES test): 1 h
- Percentage of mice in which the test compound prevented seizure in the 6 Hz test (6 Hz seizures; 30 mg/kg i.p., 0.25 h after administration): 0%
- Percentage of mice in which the test compound prevented seizure in the 6 Hz test (6 Hz seizures; [4]): 25%
- Percentage of mice in which the test compound prevented seizure in the 6 Hz test (6 Hz seizures; 30 mg/kg i.p., 1.0 h after administration): 25%
- Percentage of mice in which the test compound prevented seizure in the 6 Hz test (6 Hz seizures; 30 mg/kg i.p., 2.0 h after administration): 25%
- Percentage of mice in which the test compound prevented seizure in the 6 Hz test (6 Hz seizures; 80 mg/kg i.p., 0.25 h after administration): 100%
- Percentage of mice in which the test compound prevented seizure in the 6 Hz test (6 Hz seizures; 80 mg/kg i.p., 0.5 h after administration): 100%
- Percentage of mice in which the test compound prevented seizure in the 6 Hz test (6 Hz seizures; 80 mg/kg i.p., 1.0 h after administration): 100%
- Percentage of mice in which the test compound prevented seizure in the 6 Hz test (6 Hz seizures; 80 mg/kg i.p., 2.0 h after administration): 75%
- Percentage of mice in which the test compound prevented seizure in the 6 Hz test (6 Hz seizures; 80 mg/kg i.p., 4.0 h after administration): 0%
- Percentage of mice in which the test compound prevented seizure in the 6 Hz test (6 Hz seizures; 100 mg/kg i.p., 0.25 h after administration): 100%
- Percentage of mice in which the test compound prevented seizure in the 6 Hz test (6 Hz seizures; [5]): 100%
- Percentage of mice in which the test compound prevented seizure in the 6 Hz test (6 Hz seizures; 100 mg/kg i.p., 1.0 h after administration): 100%
- Percentage of mice in which the test compound prevented seizure in the 6 Hz test (6 Hz seizures; 100 mg/kg i.p., 2.0 h after administration): 100%
- Percentage of mice in which the test compound prevented seizure in the 6 Hz test (6 Hz seizures; [6]): 0%
- ED50 (6 Hz seizures; Mus musculus, ip, read-out: ED50 (6 Hz seizures)): 30 to 80 mg/kg
- ED50 ([3]; Rattus norvegicus, hippocampal kindled rats, from doses of 12.5, 25, 50 and 100 mg/kg, read-out: ED50, dose required to prevent the expression of focal seizures): 51.4 mg/kg
- Afterdischarge Duration ± SEM ([3]; 15 min): 19.14 ± 9.58 s
- Racine Seizure Score ± SEM ([3]; 15 min): 1.43 ± 0.81
- Afterdischarge Duration ± SEM ([3]; 45 min): 25.29 ± 13.71 s
- Racine Seizure Score ± SEM ([3]; 45 min): 1.29 ± 0.84
- Afterdischarge Duration ± SEM ([3]; 75 min): 24.86 ± 11.43 s
- Racine Seizure Score ± SEM ([3]; 75 min): 0.71 ± 0.57
- Afterdischarge Duration ± SEM ([3]; 105 min): 33.29 ± 14.17 s
- Racine Seizure Score ± SEM ([3]; 105 min): 1.29 ± 0.64
- Afterdischarge Duration ± SEM ([3]; 135 min): 34.71 ± 14.35 s
- Racine Seizure Score ± SEM ([3]; 135 min): 1.57 ± 0.81
- Afterdischarge Duration ± SEM ([3]; 165 min): 57.43 ± 18.17 s
- Racine Seizure Score ± SEM ([3]; 165 min): 1.57 ± 0.65
- Afterdischarge Duration ± SEM ([3]; 195 min): 55.29 ± 18.19 s
- Racine Seizure Score ± SEM ([3]; 195 min): 1.57 ± 0.69
- Afterdischarge Duration ± SEM ([3]; 225 min): 71.29 ± 18.99 s
- Racine Seizure Score ± SEM ([3]; 225 min): 1.86 ± 0.70
- Afterdischarge Duration ± SEM ([3]; 255 min): 65.43 ± 17.91 s
- Racine Seizure Score ± SEM ([3]; 255 min): 1.86 ± 0.63
- ED50 for toxicity relative to ED50 for anti-convulsant activity (rats): ~60 times
- acute neurotoxicity as measured by the rotorod test (mice): No acute neurotoxicity was observed
